The subject of assay [1] is Trichophyton mentagrophytes. As to the kind of experiment: Antimycotic in-vivo activity (local) in experimental guinea pig trichophytosis. Also on record: species or system Meerschweinchen; key: +++++: sehr gute Wirkung = keine Infektionszeichen am 12.-15.Tag p.i.; ++++: gute Wirkung = geringe Rötung, vereinzelt Schuppen; +++: Wirkung = Rötung, Schuppung, ohne Haarausfall; ++: schwache Wirkung = Rötung, Schuppung, Haarausfall; +: Spur Wirkung = flächiger Haarausfall, entzündliche Hautreaktion.

The test system of the next assay is Torulopsis glabrata. As to the kind of experiment: Antimycotic in-vitro activity, serial dilution test (MIC). It is filed as cell-based. The following applies: Nakaseomyces glabratus; Fleischextrakt-Traubenzucker-Bouillon, 20°C, 24 to 96 h, inoculum 5 x 10^4 Keime/ml; read-out: MHK-Werte in γ/ml Nährmedium Torulopsis glabrata. How it is done: (§1) Versuchsbeschreibung: • Die in-vitro-Prüfungen wurden im Reihenverdünnungstest mit Keiminokula von durchschnittlich 5 x 10^4 Keimen/ml Substrat durchgeführt. Als Nährmedium dienten • a) für Dermatophyten und Schimmelpilze: Sabouraud's milieu d'epreuve • b) für Hefen: • Fleischextrakt-Traubenzucker-Bouillon.
(§2) Die Bebrütungstemperatur betrug 20°C, die Bebrütungsdauer lag bei 24 bis 96 Stunden bei Hefen und 96 Stunden bei Dermatophyten und Schimmelpilzen.

The next assay relates to Candida albicans. Described as above. It is filed as cell-based. The conditions noted are these: Fleischextrakt-Traubenzucker-Bouillon, 20°C, 24 to 96 h, inoculum 5 x 10^4 Keime/ml, read-out: MHK-Werte in γ/ml Nährmedium Candida albicans. The procedure:
as §1, §2

The test system of another assay is Aspergillus fumigatus. Described as above. Type of assay: cell-based. The following applies: Sabouraud's milieu d'epreuve, 20°C, 96 h, inoculum 5 x 10^4 Keime/ml, read-out: MHK-Werte in γ/ml Nährmedium Aspergillus fumigatus. How it is done: as §1, §2
The next assay concerns Microsporum canis. The description is as above. It is filed as cell-based. The conditions noted are these: Sabouraud's milieu d'epreuve, 20°C, 96 h, inoculum 5 x 10^4 Keime/ml, read-out: MHK-Werte in γ/ml Nährmedium Microsporum canis. How it is done:
as §1, §2

A further assay concerns Trichophyton mentagr. The description is as above. It is filed as cell-based, Trichophyton mentagrophytes. The conditions noted are these: Sabouraud's milieu d'epreuve, 20°C, 96 h, inoculum 5 x 10^4 Keime/ml, read-out: MHK-Werte in γ/ml Nährmedium Trichophyton mentagr. The procedure: as §1, §2
A further assay has as its system Candida-Zellen. As to the kind of experiment: Antimycotic in-vivo activity (oral) in mouse candidosis. Also on record: species or system Mäuse vom Typ SPF-CF1. The following applies: for Wirkung: mice infected i.v. with Candida, oral 50 - 100 mg/kg one hour before and seven hours after infection, survivors on day 6 p.i.; for Wirkung compared with known compounds (A), (B), (C) and (D): mouse candidosis, oral 50 - 100 mg/kg. The procedure:
Mäuse vom Typ SPF-CF1 wurden intravenös mit 1 - 2 x 10^6 logarithmisch wachsenden Candida-Zellen, die in physiologischer Kochsalzlösung suspendiert werden, infiziert. Eine Stunde vor und sieben Sunden nach der Infektion werden die Tiere mit jeweils 50 - 100 mg/kg Körpergewicht der Präparate oral behandelt.
Unbehandelte Tiere starben 3 bis 6 Tage post infektionem. Die Überlebensrate am 6. Tag post infektionem betrug bei unbehandelten Kontrolltieren etwa 5 %.
+++++ = sehr gute Wirkung = 90 % Überlebende am 6.Tag p.i. ++++ = gute Wirkung = 80 % Überlebende am 6.Tag p.i. +++ = Wirkung = 60 % Überlebende am 6.Tag p.i. ++ = schwache Wirkung = 40 % Überlebende am 6.Tag p.i. + = Spur Wirkung = unter 40 % Überlebende am 6.Tag p.i. k.W. = keine Wirkung

Where [2] appears, read: local, 1 x daily from day 3 p.i., 15 %ige Lösung in Dimethylsulfoxid:Glycerin = 1:4, infection signs day 12-15 p.i.
Setting [3] is: local treatment, trichophytosis model.

Data on eight compounds can be found in EP0085842A1, “Antimycosic agents” (BAYER AG, priority 1982, dated 1983).

In brackets after ≈: the same amount, converted by molar mass.

In the case of `CC(C)(CF)C(O)(COc1ccc(F)cc1)Cn1cncn1` (centres unmarked) [Beispiel 1, 4-Fluor-2-(4-fluorphenoxymethyl)-3,3-dimethyl-1-(1,2,4-triazol-1-yl)-butan-2-ol], the values for the Wirkung entry (in assay [1] (setting [2]); in the assay on Candida-Zellen) were “++” and “+++ (Wirkung = 60 % Überlebende am 6.Tag p.i.)”, respectively. The MIC was 16 µg/mL (≈ 51.4 µM) with Torulopsis glabrata; < 1 µg/mL with Candida albicans; 8 µg/mL (≈ 25.7 µM) with Aspergillus fumigatus; 8 µg/mL (≈ 25.7 µM) in the assay on Microsporum canis; 4 µg/mL (≈ 12.8 µM) in the assay with Trichophyton mentagr.. Further, the “Wirkung compared with known compounds (A), (B), (C) and (D)” value (shortened to “Wirkung compared with known compounds”) in the assay on Candida-Zellen is recorded as “bessere Wirkung”.
Regarding `C=CC(C)(C)C(O)(COc1ccc(-c2ccccc2)cc1)Cn1ccnc1` (centres unmarked) [Beispiel 5, 4-(4-Biphenylyloxymethyl)-3,3-dimethyl-4-hydroxy-5-(imidazol-1-yl)-1-penten], the “Wirkung” value in assay [1] (setting [3]) was “Wirkung bis gute Wirkung”; in assay [1] (setting [2]), “+++”; in the assay with Candida-Zellen it was “++++ (gute Wirkung = 80 % Überlebende am 6.Tag p.i.)”. The MIC in the assay with Torulopsis glabrata, in the assay on Candida albicans, with Aspergillus fumigatus, in the assay on Microsporum canis and with Trichophyton mentagr. was < 1 µg/mL throughout. Moreover, the “Wirkung compared with known compounds” value with Candida-Zellen is “bessere Wirkung”.
In the case of `CC(C)(CF)C(O)(COc1ccc(Cl)cc1)Cn1cncn1` (centres unmarked) [Beispiel 7], the “Wirkung” value is reported as “Wirkung bis gute Wirkung” in assay [1] (setting [3]), “+++” in assay [1] (setting [2]) and “+++++ (sehr gute Wirkung = 90 % Überlebende am 6.Tag p.i.)” in the assay with Candida-Zellen. Moreover, the MIC in the assay with Torulopsis glabrata was < 1 µg/mL; in the assay with Candida albicans, < 1 µg/mL; with Aspergillus fumigatus, < 1 µg/mL; with Microsporum canis it was 2 µg/mL (≈ 6.1 µM); with Trichophyton mentagr. it was < 1 µg/mL. Moreover, the “Wirkung compared with known compounds” value with Candida-Zellen is given as “bessere Wirkung”.
Take `Cc1cc(Cl)ccc1OCC(O)(Cn1cncn1)C(C)(C)CF` (centres unmarked) [Beispiel 8]: the “Wirkung” value is recorded as “Wirkung bis gute Wirkung” in assay [1] (setting [3]), “+++” in assay [1] (setting [2]) and “+++ (Wirkung = 60 % Überlebende am 6.Tag p.i.)” with Candida-Zellen. Moreover, the MIC in the assay on Torulopsis glabrata is 2 µg/mL (≈ 5.85 µM); in the assay on Candida albicans it was < 1 µg/mL; in the assay with Aspergillus fumigatus, 4 µg/mL (≈ 11.7 µM); with Microsporum canis, < 1 µg/mL; in the assay on Trichophyton mentagr., < 1 µg/mL. The “Wirkung compared with known compounds” value in the assay on Candida-Zellen was “bessere Wirkung”.
In the case of `CC(C)(CF)C(O)(COc1ccc(Cl)cc1Cl)Cn1cncn1` (centres unmarked) [Beispiel 9], the entries for the “Wirkung” value (in assay [1] (setting [3]); in assay [1] (setting [2]); in the assay on Candida-Zellen) were “Wirkung bis gute Wirkung”, “++++” and “+++ (Wirkung = 60 % Überlebende am 6.Tag p.i.)”, respectively. The MIC with Torulopsis glabrata is 4 µg/mL (≈ 11 µM); with Candida albicans it was 4 µg/mL (≈ 11 µM); in the assay on Aspergillus fumigatus, 8 µg/mL (≈ 22.1 µM); with Microsporum canis it was 2 µg/mL (≈ 5.52 µM); in the assay on Trichophyton mentagr., < 1 µg/mL. For the same compound, in the assay on Candida-Zellen, the “Wirkung compared with known compounds” value was “bessere Wirkung”.
For the compound `CC(CF)(CF)C(O)(COc1ccc(Cl)cc1)Cn1ccnc1` (centres unmarked) [Beispiel 31], the figures for the “Wirkung” value (in assay [1] (setting [3]); in assay [1] (setting [2]); with Candida-Zellen) were “Wirkung bis gute Wirkung”, “+++” and “++++ (gute Wirkung = 80 % Überlebende am 6.Tag p.i.)”, respectively. For the same compound, the “Wirkung compared with known compounds” value with Candida-Zellen is recorded as “bessere Wirkung”.
In the case of `CC(C)(CF)C(O)(CCc1ccc(Cl)cc1Cl)Cn1ccnc1` (centres unmarked) [Beispiel 38], the MIC was 2 µg/mL (≈ 5.57 µM) in the assay on Torulopsis glabrata; < 1 µg/mL in the assay on Candida albicans; 16 µg/mL (≈ 44.5 µM) in the assay with Aspergillus fumigatus; 8 µg/mL (≈ 22.3 µM) in the assay with Microsporum canis; 4 µg/mL (≈ 11.1 µM) in the assay on Trichophyton mentagr.. In addition, the Wirkung entry in the assay with Candida-Zellen is reported as “+++ (Wirkung = 60 % Überlebende am 6.Tag p.i.)”. In the assay with Candida-Zellen, the “Wirkung compared with known compounds” value was “bessere Wirkung”.
In the case of `C=CC(C)(C)C(O)(COc1ccc(Cl)cc1Cl)Cn1ccnc1` (centres unmarked) [Beispiel 39], the MIC in the assay on Torulopsis glabrata is < 1 µg/mL; in the assay with Candida albicans, 2 µg/mL (≈ 5.63 µM); with Aspergillus fumigatus it was 32 µg/mL (≈ 90.1 µM); in the assay on Microsporum canis, 16 µg/mL (≈ 45 µM); in the assay on Trichophyton mentagr. it was < 1 µg/mL. Moreover, in the assay with Candida-Zellen, the Wirkung entry is “++ (schwache Wirkung = 40 % Überlebende am 6.Tag p.i.)”. The “Wirkung compared with known compounds” value in the assay with Candida-Zellen is “bessere Wirkung”.
